Results published in PubChem BioAssay AID272 (DTP/NCI, 2004).
Several values for one entry are separate records, joined by “and”; a condition that tells them apart may be missing. Identical values can stand only once. Records with an inconclusive call do not appear.

Tested on: Lewis lung carcinoma i.m., BDF1 mice, T/C %
Test: NCI In Vivo Anticancer Drug Screen. Data for tumor model Lewis Lung Carcinoma (intramuscular) in B6D2F1 (BDF1) mice
Summary of the method: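 Transplantable tumour model; readout survival or tumour size; value = treated (T) / vehicle control (C).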

[1] = endpoint: median survival time, dose: 2.0 mg/kg/injection, schedule: Q01DX011 (ip), vehicle: saline, higher = longer survival

Cc1cc[n+](CCc2ccccc2)cc1
T/C (endpoint: mean tumor weight (est.), dose: 12.5 mg/kg/injection, schedule: Q01DX011 (ip), vehicle: saline, higher = larger tumour): 76 % of control | T/C (endpoint: mean tumor weight (est.), dose: 25.0 mg/kg/injection, schedule: Q01DX011 (ip), vehicle: saline, higher = larger tumour): 95 % of control | T/C (endpoint: mean tumor weight (est.), dose: 50.0 mg/kg/injection, schedule: Q01DX011 (ip), vehicle: saline, higher = larger tumour): 75 % of control | T/C (endpoint: median survival time, dose: 12.5 mg/kg/injection, schedule: Q01DX011 (ip), vehicle: saline, higher = longer survival): 94 % of control | T/C (endpoint: median survival time, dose: 25.0 mg/kg/injection, schedule: Q01DX011 (ip), vehicle: saline, higher = longer survival): 102 % of control | T/C (endpoint: median survival time, dose: 50.0 mg/kg/injection, schedule: Q01DX011 (ip), vehicle: saline, higher = longer survival): 106 % of control

CC(=O)OC(C1CO1)C(OC(C)=O)C1CO1 (stereo not given)
T/C (endpoint: median survival time, dose: 5.0 mg/kg/injection, schedule: Q01DX011 (ip), vehicle: saline, higher = longer survival): 105 % of control | T/C (endpoint: median survival time, dose: 10.0 mg/kg/injection, schedule: Q01DX011 (ip), vehicle: saline, higher = longer survival): 121 % of control

CC1OC(O[C@@H]2C=C3CC[C@@H]4[C@H](CC[C@]5(C)[C@@H](c6ccc(=O)oc6)CC[C@]45O)[C@@]3(C)CC2)C(O)C(O)C1O (stereo not given in full)
T/C (endpoint: mean tumor weight, dose: 0.31 mg/kg/injection, schedule: Q01DX011 (ip), vehicle: steriod suspending solution, higher = larger tumour): 92 % of control | T/C (endpoint: mean tumor weight, dose: 0.62 mg/kg/injection, schedule: Q01DX011 (ip), vehicle: steriod suspending solution, higher = larger tumour): 114 % of control | T/C (endpoint: mean tumor weight, dose: 1.25 mg/kg/injection, schedule: Q01DX011 (ip), vehicle: steriod suspending solution, higher = larger tumour): 36 % of control | T/C (endpoint: mean tumor weight, dose: 2.5 mg/kg/injection, schedule: Q01DX011 (ip), vehicle: steriod suspending solution, higher = larger tumour): 50 % of control | T/C (endpoint: median survival time, dose: 0.31 mg/kg/injection, schedule: Q01DX011 (ip), vehicle: steriod suspending solution, higher = longer survival): 122 % of control | T/C (endpoint: median survival time, dose: 1.25 mg/kg/injection, schedule: Q01DX011 (ip), vehicle: steriod suspending solution, higher = longer survival): 113 % of control | T/C (endpoint: median survival time, dose: 2.5 mg/kg/injection, schedule: Q01DX011 (ip), vehicle: steriod suspending solution, higher = longer survival): 119 % of control

COc1cc([C@@H]2c3cc4c(cc3[C@@H](OC3OC5CO[C@@H](c6cccs6)OC5C(O)C3O)[C@H]3COC(=O)[C@H]23)OCO4)cc(OC)c1O (stereo not given in full)
T/C (endpoint: mean tumor weight (est.), dose: 0.25 mg/kg/injection, schedule: Q01DX011 (ip), vehicle: saline, higher = larger tumour): 98 % of control | T/C (endpoint: mean tumor weight (est.), dose: 0.5 mg/kg/injection, schedule: Q01DX011 (ip), vehicle: saline, higher = larger tumour): 74 % of control | T/C (endpoint: mean tumor weight (est.), dose: 1.0 mg/kg/injection, schedule: Q01DX011 (ip), vehicle: saline, higher = larger tumour): 68 % of control | T/C (endpoint: mean tumor weight (est.), dose: 2.0 mg/kg/injection, schedule: Q01DX011 (ip), vehicle: saline, higher = larger tumour): 45 % of control | T/C (endpoint: median survival time, dose: 0.25 mg/kg/injection, schedule: Q01DX011 (ip), vehicle: saline, higher = longer survival): 118 % of control | T/C (endpoint: median survival time, dose: 0.5 mg/kg/injection, schedule: Q01DX011 (ip), vehicle: saline, higher = longer survival): 104 % of control | T/C (endpoint: median survival time, dose: 1.0 mg/kg/injection, schedule: Q01DX011 (ip), vehicle: saline, higher = longer survival): 106 % of control | T/C [1]: 114 % of control | T/C (endpoint: median survival time, dose: 2.0 mg/kg/injection, schedule: Q04DX003 (ip), vehicle: saline, higher = longer survival): 104 % of control | T/C (endpoint: median survival time, dose: 4.0 mg/kg/injection, schedule: Q04DX003 (ip), vehicle: saline, higher = longer survival): 105 % of control | T/C (endpoint: median survival time, dose: 8.0 mg/kg/injection, schedule: Q04DX003 (ip), vehicle: saline, higher = longer survival): 115 % of control | T/C (endpoint: median survival time, dose: 32.0 mg/kg/injection, schedule: Q04DX003 (ip), vehicle: saline, higher = longer survival): 37 % of control

CS(=O)(=O)OCC(O)C(O)COS(C)(=O)=O (stereo not given)
T/C (endpoint: median survival time, dose: 100.0 mg/kg/injection, schedule: Q01DX011 (ip), vehicle: saline, higher = longer survival): 100 % of control | T/C (endpoint: median survival time, dose: 400.0 mg/kg/injection, schedule: Q01DX011 (ip), vehicle: saline, higher = longer survival): 100 % of control

CCOC(=O)c1nc(C)[nH]c(=O)c1C
T/C (endpoint: median survival time, dose: 4.0 mg/kg/injection, schedule: Q01DX009 (ip), vehicle: water, higher = longer survival): 94 % of control | T/C (endpoint: median survival time, dose: 8.0 mg/kg/injection, schedule: Q01DX009 (ip), vehicle: water, higher = longer survival): 109 % of control | T/C (endpoint: median survival time, dose: 16.0 mg/kg/injection, schedule: Q01DX009 (ip), vehicle: water, higher = longer survival): 104 % of control | T/C (endpoint: median survival time, dose: 64.0 mg/kg/injection, schedule: Q01DX009 (ip), vehicle: water, higher = longer survival): 100 % of control

N=[N+]=CC(=O)OCC(N)C(=O)O (stereo not given)
T/C (endpoint: mean tumor weight, dose: 2.0 mg/kg/injection, schedule: Q01DX011 (ip), vehicle: saline, higher = larger tumour): 94 % of control | T/C (endpoint: mean tumor weight, dose: 4.0 mg/kg/injection, schedule: Q01DX011 (ip), vehicle: saline, higher = larger tumour): 71 % of control | T/C (endpoint: mean tumor weight, dose: 8.0 mg/kg/injection, schedule: Q01DX011 (ip), vehicle: saline, higher = larger tumour): 27 % of control | T/C [1]: 96 % of control and 107 % of control | T/C (endpoint: median tumor weight (est.), dose: 2.0 mg/kg/injection, schedule: Q01DX011 (ip), vehicle: saline, higher = larger tumour): 79 % of control | T/C (endpoint: median tumor weight (est.), dose: 8.0 mg/kg/injection, schedule: Q01DX011 (ip), vehicle: saline, higher = larger tumour): 50 % of control

CCC[CH2][Sn](=[S])[CH2]CCC
T/C (endpoint: mean tumor weight (est.), dose: 6.25 mg/kg/injection, schedule: Q01DX011 (ip), vehicle: saline with Tween-80, higher = larger tumour): 103 % of control | T/C (endpoint: mean tumor weight (est.), dose: 12.5 mg/kg/injection, schedule: Q01DX011 (ip), vehicle: saline with Tween-80, higher = larger tumour): 77 % of control | T/C (endpoint: mean tumor weight (est.), dose: 25.0 mg/kg/injection, schedule: Q01DX011 (ip), vehicle: saline with Tween-80, higher = larger tumour): 55 % of control | T/C (endpoint: median survival time, dose: 6.25 mg/kg/injection, schedule: Q01DX011 (ip), vehicle: saline with Tween-80, higher = longer survival): 102 % of control | T/C (endpoint: median survival time, dose: 12.5 mg/kg/injection, schedule: Q01DX011 (ip), vehicle: saline with Tween-80, higher = longer survival): 116 % of control | T/C (endpoint: median survival time, dose: 25.0 mg/kg/injection, schedule: Q01DX011 (ip), vehicle: saline with Tween-80, higher = longer survival): 112 % of control
